Measured values from US5455233A, “Oligoribonucleoside and oligodeoxyribonucleoside boranophosphates” (University of North Carolina, priority 1992, dated 1995).

Columns and labels:
serum cholesterol = assay: Antihyperlipidemic activity: serum cholesterol levels in male CF1 mice; type: in vivo; details: for Percent Inhibition, Serum Cholesterol, Day 9: Day 9, 8 mg/kg intraperitoneally; for Percent Inhibition, Serum Cholesterol, Day 16: Day 16, 8 mg/kg intraperitoneally
Procedure: (§1) Compounds to be tested were suspended in 1% aqueous carboxymethylcellulose,homogenized and administered to male CF1 mice (25 g) intraperitoneally for 16d. On days 9 and 16, blood was obtained by tail vein bleeding, and the serum was separated by centrifugation for three minutes. The serum cholesterol levels were determined by a modification of the Liebermann-Burchard reaction in accordance with known techniques. See A. Ness, et al., Clin. Chim. Acta 10, 229 (1964). Serum triglyceride levels were determined with a commercial kit, the Fisher Hycel Triglyceride Test Kit, for a different group of animals bled on day 16.

serum triglyceride = assay: Antihyperlipidemic activity: serum triglyceride levels in male CF1 mice; type: in vivo; details: 8 mg/kg intraperitoneally
Procedure: as §1

[1] = tested on: KB epidermoid oral nesopharnyx; assay: Cytotoxic activity, KB epidermoid oral nesopharnyx; type: cell-based; details: cell density estimated when controls converged
Procedure: The cytotoxic activity of oligonucleoside boranophosphates of the present invention was tested on the following neoplastic cell lines:
6. KB epidermoid oral nesopharnyx. R. Geran, supra; H. Eagle, Proc. Soc. Expt. Biol. 89, 362 (1955) (grown in EMEM+5% calf serum).
The cytotoxic screens were conducted according to NIH protocols, see E. Huang et al., J. Pharm. Sci. 61, 108 (1972), with 10^4 cells, growth medium, antibiotics and drugs from 0.5 to 100 μg/ml final concentration. For the L1210, Hela-S, amd Tmolt, (i.e. the suspended cells), the incubations were conducted in sterile test tubes in a final volume of 1 ml for 72 hr at 37° C. in a CO2 incubator. The cells on the third day were still in log growth phase. The number of cells/ml are determined using trypan blue exclusion and a hemocytometer. See, e.g., R. Geran, supra. For solid tumors 1×10^4 cells are plated with 1 ml of medium+ antibiotics and the other components of growth. When the controls have converged (≈95%) then the density of the cells is estimated and the ED50 values calculated.

[2] = tested on: inflammatory response (carrageenan, hind foot); assay: Anti-inflammatory activity: carrageenan-induced paw inflammation in CF1 male mice; type: in vivo; details: 8 mg/kg intraperitoneally 3 hours and 30 minutes prior to carrageenan; feet excised after 3 hours
Procedure: Anti-Inflammatory Activity CF1 male mice (~25 g) were administered test drugs at 5-40 mg/kg in 0.05% Tween 80-H2 O intraperitoneally 3 hours prior to and 30 minutes prior to the injection of 0.2 ml of 1% carrageenan in 0.9% saline into the plantar surface of the right hind foot. Saline was injected into the left hind foot, which serves as a base line. After 3 hours, both feet were excised at the tibiotarsal (ankle) joint according to standard procedures. See C. Winter et al., Proc. Soc. Expt. Biol Med. 544, 111 (1962); A. Roszkawski et al., J. Pharm. Exp. Ther. 179, 114 (1971). Control mice afforded a 78±3 mg increase in paw weight.

| Substance | Percent Inhibition, Serum Cholesterol, Day 9 (serum cholesterol) [%] | Percent Inhibition, Serum Cholesterol, Day 16 (serum cholesterol) [%] | Percent Inhibition, Serum Triglyceride, Day 16 (serum triglyceride) [%] | ED50, KB [1] [µg/mL] | Percent Inhibition of the inflammatory response [2] [%] |
| --- | --- | --- | --- | --- | --- |
| thymidylyl[3'-5']-(3'-acetylthymidylyl) (borane)phosphonate methyl ester [Compound A] | 38 | 46 | 12 | 3.51 | 37 |
| thymidylyl[3'-5']thymidylyl[3'-5'](3'-acetylthymidylyl) boranephosphonate dimethyl ester [Compound T] | 33 | 32 | 18 | 0.61 | 40 |
